According to ChEMBL document CHEMBL1159088, “Design, synthesis and biological evaluation of simplified analogues of the RNA polymerase inhibitor etnangien” (Bioorg Med Chem Lett, 2010):
Converted amounts (≈) assume the structure as drawn. One block for each compound: values may come before it.

Experiments:
Escherichia coli = assay: Antibacterial activity against Escherichia coli; format: functional
Saccharomyces cerevisiae = assay: Antibacterial activity against Saccharomyces cerevisiae; format: functional
Micrococcus luteus = assay: Antibacterial activity against Micrococcus luteus; format: functional
Mycolicibacterium phlei = assay: Antibacterial activity against Mycobacterium phlei; format: functional
[1] = system: Corynebacterium glutamicum; assay: Antibacterial activity against Corynebacterium glutamicum; format: functional
Staphylococcus aureus = assay: Antibacterial activity against Staphylococcus aureus; format: functional
[2] = Chemical stability at pH >10; format: physicochemical
[3] = Chemical stability after 48 hrs; format: physicochemical; details: read-out: Stability
[4] = Chemical stability at pH 7; format: physicochemical; details: buffer
[5] = Chemical stability at pH >3; format: physicochemical

SMILES: COC(=O)CC/C=C(\C)[C@@H](O)C/C=C/C=C/C=C/C=C/C=C/C(C)=C/[C@@H](O)[C@@H](C)[C@@H]1C[C@H](O)CCC[C@H](OC)C/C=C\C=C\C[C@H](C)[C@@H](O)[C@H](C)[C@@H](O)[C@H](C)[C@H](O)CC(=O)O1 [ETNANGIEN METHYL ESTER]
- MIC (Escherichia coli): > 20 µg/mL
- Stability [2]: Unstable
- MIC (Saccharomyces cerevisiae): > 40 µg/mL
- MIC (Micrococcus luteus): 0.39 µg/mL (≈ 0.456 µM)
- remaining at 48 h [3]: < 5%
- MIC [1]: 0.24 µg/mL (≈ 0.281 µM)
- MIC (Staphylococcus aureus): 2.5 µg/mL (≈ 2.92 µM)
- Stability [4]: Stable
- Stability [5]: Unstable

SMILES: CO[C@@H]1C/C=C\C=C\C[C@H](C)[C@@H](O)[C@H](C)[C@@H](O)[C@H](C)[C@H](O)CC(=O)O[C@H]([C@H](C)[C@H](O)/C=C(C)/C=C/C=C/C=C/C=C/C=C/C[C@H](O)/C(C)=C/CCC(=O)O)C[C@H](O)CCC1 [ETNANGIEN]
- MIC (Escherichia coli): > 80 µg/mL
- Stability [2]: Unstable
- MIC (Saccharomyces cerevisiae): > 80 µg/mL
- MIC (Micrococcus luteus): 0.06 µg/mL (≈ 0.0713 µM)
- MIC (Mycolicibacterium phlei): 0.12 µg/mL (≈ 0.143 µM)
- MIC [1]: 0.03 µg/mL (≈ 0.0357 µM)
- MIC (Staphylococcus aureus): 1 µg/mL (≈ 1.19 µM)
- Stability [4]: Stable
- Stability [5]: Unstable

Further lines, results first:

- MIC (Escherichia coli): > 20 µg/mL
- MIC (Saccharomyces cerevisiae): > 20 µg/mL
- MIC (Micrococcus luteus): > 20 µg/mL
- MIC (Mycolicibacterium phlei): 20 µg/mL (≈ 30.7 µM)
- MIC [1]: 10 µg/mL (≈ 15.4 µM)
- MIC (Staphylococcus aureus): > 20 µg/mL
SMILES: CO[C@@H]1C/C=C\C=C\C[C@H](C)[C@H]2OC(C)(C)O[C@H]([C@H]2C)[C@H](C)[C@H](O)CC(=O)O[C@H]([C@H](C)[C@H](O)/C=C(C)/C=C/CO)C[C@H](O)CCC1

- MIC (Escherichia coli): > 20 µg/mL
- MIC (Saccharomyces cerevisiae): > 20 µg/mL
- MIC (Micrococcus luteus): > 20 µg/mL
- MIC (Mycolicibacterium phlei): > 20 µg/mL
- MIC [1]: 20 µg/mL (≈ 31.5 µM)
- MIC (Staphylococcus aureus): > 20 µg/mL
SMILES: COc1ccc(COC[C@@H](C)[C@@H](O)C[C@H]2CCC[C@H](OC)C/C=C\C=C\C[C@H](C)[C@@H](O)[C@H](C)[C@@H](O)[C@H](C)[C@H](O)CC(=O)O2)cc1

- MIC (Escherichia coli): > 20 µg/mL
- MIC (Saccharomyces cerevisiae): > 20 µg/mL
- MIC (Micrococcus luteus): > 20 µg/mL
- MIC (Mycolicibacterium phlei): 20 µg/mL (≈ 31.5 µM)
- MIC [1]: 10 µg/mL (≈ 15.8 µM)
- MIC (Staphylococcus aureus): > 20 µg/mL
SMILES: COc1ccc(COC[C@@H](C)[C@@H]2C[C@H](O)CCC[C@H](OC)C/C=C\C=C\C[C@H](C)[C@@H](O)[C@H](C)[C@@H](O)[C@H](C)[C@H](O)CC(=O)O2)cc1
